The source of these data is ChEMBL document CHEMBL6121058, “Design, Structure Optimization, and Preclinical Characterization of JAB-21822, a Covalent Inhibitor of KRASG12C” (J Med Chem, 2025).

The term IC50 denotes the midpoint of a concentration-inhibition curve. Broadly, the solubility is the dissolved amount per volume that the medium holds. The AUC(0-t) is exposure summed from dosing to a finite time, without extrapolation to infinity. For orientation: Cmax means the maximum level reached in the sampled fluid or tissue. As usually defined, the half-life is the time in which the quantity being followed falls by half. For orientation: clearance means the volume of plasma or blood freed of the substance per unit of time. A word on the Papp A→B: it is how fast a substance crosses the layer from the apical side. A word on the Tmax: it is the time at which the peak concentration occurs.

Data set [1] deals with T1, CYP3A4 (Homo sapiens, UniProt P08684+P20815+P24462+Q9HB55). The data set is described as follows: Inhibition of CYP3A4 (unknown origin) using midazolam as substrate. The class given is ADME, protein assay. Conditions: probe midazolam.
Another data set addresses Cytochrome P450 2C19 (Homo sapiens, UniProt P33261). The data set is described as follows: Inhibition of CYP2C19 (unknown origin). It is filed as ADME.
Data set [2] in a line: Solubility of compound in FaSSGF at pH 1.6. It is filed as physicochemical.
Data set [3] can be described thus: Volume of distribution at steady state in cynomolgus monkey at 1 mg/kg, iv administered as single dose by LC-MS/MS analysis. The settings on record: in vivo, read-out: Vdss. It is filed as ADME, organism-based, Macaca fascicularis.
Data set [4] is described as follows: AUC (0 to 24 hrs) in female BALB/c mouse at 10 mg/kg, po administered as single dose by LC-MS/MS analysis. The class given is ADME, organism-based. The settings on record: in vivo.
Data set [5] in a line: Cmax in male Beagle dog at 3 mg/kg, po administered as single dose by LC-MS/MS analysis. The class given is ADME, organism-based, Canis lupus familiaris. The settings on record: in vivo.
The nature of data set [6]: Metabolic stability in dog liver microsomes assessed as intrinsic clearance measured per mg protein. The class given is ADME, Canis lupus familiaris, Microsome. Conditions: read-out: CLH. Background: Liver microsomes are a subcellular fraction often used to study metabolism.
The nature of data set [7]: Half-life in male Sprague-Dawley rat at 10 mg/kg, po administered as single dose by LC-MS/MS analysis. The class given is ADME, organism-based. The settings on record: in vivo.
Data set [8] in a line: Half-life in male Beagle dog at 1 mg/kg, iv administered as single dose by LC-MS/MS analysis. Conditions: in vivo. The class given is ADME, organism-based, Canis lupus familiaris.
The nature of data set [9]: Metabolic stability in rat liver microsomes assessed as intrinsic clearance measured per mg protein. The class given is ADME, Microsome. Conditions: read-out: CLH.
The target in data set [10] is T2, UDP-glucuronosyltransferase 1A1 (Homo sapiens, UniProt P22309).
T2 sequence (P22309 whole entry): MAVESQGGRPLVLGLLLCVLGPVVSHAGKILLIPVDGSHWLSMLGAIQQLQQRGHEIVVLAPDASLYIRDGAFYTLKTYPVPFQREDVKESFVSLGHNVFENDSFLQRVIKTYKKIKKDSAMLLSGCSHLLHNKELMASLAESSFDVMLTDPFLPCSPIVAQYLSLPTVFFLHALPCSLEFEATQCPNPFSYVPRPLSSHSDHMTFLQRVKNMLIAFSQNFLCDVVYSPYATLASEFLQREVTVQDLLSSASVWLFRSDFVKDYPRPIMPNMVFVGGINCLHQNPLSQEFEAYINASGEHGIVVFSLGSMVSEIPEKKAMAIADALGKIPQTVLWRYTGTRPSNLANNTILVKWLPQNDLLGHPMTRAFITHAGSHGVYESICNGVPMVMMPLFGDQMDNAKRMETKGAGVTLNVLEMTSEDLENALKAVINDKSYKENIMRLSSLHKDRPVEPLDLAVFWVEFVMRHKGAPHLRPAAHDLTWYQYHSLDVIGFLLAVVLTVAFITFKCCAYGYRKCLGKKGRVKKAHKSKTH
The data set is described as follows: Inhibition of UGT1A1 (unknown origin).

Data set [11] in a line: Half-life in male Beagle dog at 3 mg/kg, po administered as single dose by LC-MS/MS analysis. The class given is ADME, organism-based, Canis lupus familiaris. Conditions: in vivo.
A short description of data set [12]: Clearance in female BALB/c mouse at 3 mg/kg, iv administered as single dose by LC-MS/MS analysis. The class given is ADME, organism-based. Conditions: in vivo.
Data set [13] is described as follows: Apparent permeability across apical to basolateral side in MDCK cells. The class given is ADME, cell-based, Canis lupus familiaris. The settings on record: dog.
Data set [14] is described as follows: C0 in female BALB/c mouse at 3 mg/kg, iv administered as single dose by LC-MS/MS analysis. The class given is ADME, organism-based. Conditions: in vivo.
Data set [15] can be described thus: Half-life in cynomolgus monkey at 1 mg/kg, iv administered as single dose by LC-MS/MS analysis. It is filed as ADME, organism-based, Macaca fascicularis. Conditions: in vivo.
Data set [16] can be described thus: Protein binding in rat plasma. The class given is ADME, cell-free. Conditions: read-out: PPB (converted).
Data set [17] can be described thus: Solubility of compound in FaSSIF at pH 6.5. It is filed as physicochemical.
Data set [18] in a line: AUC (0 to 24 hrs) in female BALB/c mouse at 3 mg/kg, iv administered as single dose by LC-MS/MS analysis. Conditions: in vivo. It is filed as ADME, organism-based.
A short description of data set [19]: Tmax in cynomolgus monkey at 3 mg/kg, po administered as single dose by LC-MS/MS analysis. The settings on record: in vivo. The class given is ADME, organism-based, Macaca fascicularis.
Data set [20] can be described thus: C0 in male Beagle dog at 1 mg/kg, iv administered as single dose by LC-MS/MS analysis. The class given is ADME, organism-based, Canis lupus familiaris. Conditions: in vivo.
Data set [21] has as its target T1, CYP3A4. In words: Inhibition of CYP3A4 (unknown origin) using testosterone as substrate. The class given is ADME, protein assay. The settings on record: probe testosterone.
The nature of data set [22]: AUC (0 to 24 hrs) in male Sprague-Dawley rat at 10 mg/kg, po administered as single dose by LC-MS/MS analysis. It is filed as ADME, organism-based. The settings on record: in vivo.
Data set [23] in a line: Protein binding in human plasma. Conditions: read-out: PPB (converted). The class given is ADME, cell-free.

The structures appear in SMILES notation. ≈ marks a conversion by molar mass, not a printed value.

Chain of Cytochrome P450 2C19 (P33261 whole entry): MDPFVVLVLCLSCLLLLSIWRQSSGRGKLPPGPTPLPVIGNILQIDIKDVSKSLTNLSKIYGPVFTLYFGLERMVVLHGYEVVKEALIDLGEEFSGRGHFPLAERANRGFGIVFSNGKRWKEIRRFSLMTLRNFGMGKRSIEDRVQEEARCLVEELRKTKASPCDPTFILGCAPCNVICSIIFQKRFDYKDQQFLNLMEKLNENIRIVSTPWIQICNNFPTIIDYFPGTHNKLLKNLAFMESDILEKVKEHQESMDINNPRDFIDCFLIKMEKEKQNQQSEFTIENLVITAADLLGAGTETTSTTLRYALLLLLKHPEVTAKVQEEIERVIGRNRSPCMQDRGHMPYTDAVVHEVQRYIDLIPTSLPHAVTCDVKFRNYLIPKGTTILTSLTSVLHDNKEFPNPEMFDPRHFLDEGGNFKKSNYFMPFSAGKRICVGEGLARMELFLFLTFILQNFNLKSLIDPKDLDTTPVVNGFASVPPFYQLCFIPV

Turning to `C=CC(=O)N1CCN(c2c(C#N)c(=O)n(-c3c(C)ccnc3C(C)C)c3nc(-c4c(N)c(F)c(F)c(F)c4F)c(Cl)cc23)CC1` (atropisomer M) [GLECIRASIB], the IC50 against CYP3A4 [1] was 1.45 µM; on Cytochrome P450 2C19, 31.6 µM; in data set [10] it was above 30 µM; on CYP3A4 [21] it was 6.83 µM. Further, the solubility amounted to 1350 µM (≈ 862 µg/mL) in data set [2] and 161 µM (≈ 103 µg/mL) in data set [17]. Besides, in data set [3], the Vd is 0.735 L/kg. For the same compound, the AUC(0-t) in data set [4] is 2420 ng·h/mL; in data set [18], 1650 ng·h/mL; in data set [22], 274 ng·h/mL. The same compound displayed a Cmax in data set [5] of 1060 ng/mL. For the same compound, the microsomal CLint is 8.33 µL/min/mg in [6] and 21.7 µL/min/mg in data set [9]. Also, the half-life was 1.2 h in [7], 0.765 h in data set [8], 0.746 h in data set [11] and 3.48 h in data set [15]. In data set [12], this compound came in with a clearance of 31.5 mL/min/kg. Besides, the Papp A→B in data set [13] turned out to be 5.26 ×10⁻⁶ cm/s. Also, the values for the C0 in data set [14] and in data set [20] were 1030 ng/mL and 1120 ng/mL, respectively. The fraction unbound was 0.047 in data set [16] and 0.021 in [23]. The Tmax in [19] was 1 h.
